# According to US8163805B2, “Small molecule antagonists of Bcl-2 family proteins” (The Regents of the University of Michigan, priority 2001, dated 2012):
# Values joined by “and” are separate entries in the source; they are usually repeats but may differ in a detail not shown here. Equal values may be shown once. Read-outs that look alike come from different tables or passages of the source.
# Assays:
# MDA-MB-231 cells = assay: 5 day MTT cell growth assay, MDA-MB-231; format: cell-based, human; conditions: breast cancer cell lines with high levels of Bcl-XL, FIG. 12
# Method: For example, the ability of gossypol compounds to inhibit MDA-MB-231 cell growth was tested in a 5 day MTT assay.
# Cells were seeded in 24 or 96-well-plates and gossypol compounds were prepared at 2-10 fold dilutions in suitable medium. Inhibition of cell viability was determined by treating the cells with the gossypol compounds for 24 hrs. […] Inhibition of cell growth was determined by treating cells with gossypol compounds for 3-6 days. […] In some embodiments, MTT assays are used to determine cell inhibition.
# Absorbance at 540 nm is used to measure the amount of formazan product.
# UM-SCC-22A = assay: 6-day MTT cell growth, UM-SCC-22A; format: cell-based, human; conditions: read-out: IC50, inhibition of cell growth
# Method: (§1) UM-SCC and human fibroblast cell lines were continuously exposed to varying concentrations of (−)-gossypol in 6-day MTT cell survival assays. Control wells contained media (DMEM) with vehicle alone. For each data point n=5.
# (§2) Ten squamous cell carcinoma cell lines established at the University of Michigan (UM-SCC) and three human fibroblast lines were grown in Dulbecco's modified Eagle's medium (DMEM) supplemented with 10% fetal bovine serum. UM-SCC cell lines originated from the larynx (n=2; UM-SCC-12, -23), oral cavity/oropharynx (n=5; UM-SCC-1, -6, -14A, -74B, -81B), hypopharynx (n=1; UM-SCC-22A) and metastases from laryngeal cancers (n=2; UM-SCC-17B, -25). Human fibroblast cell lines originated from surgical specimens (fibroblast cell lines 2 and 3) and neonatal foreskin samples (fibroblast cell line 1).
# (§3) Logarithmically growing cell lines were cultured, washed, counted, and plated at 5,000-15,000 cells per well in duplicate wells of 96-well plates and incubated in DMEM overnight. […] The MTT assay measures cell survival based on mitochondrial conversion of MTT from a soluble tetrazolium salt into an insoluble colored formazan precipitate, which is dissolved in dimethyl sulfoxide and quantitated by spectrophotometry. […] Percent absorbance relative to control was plotted as a linear function of drug concentration.
# UM-SCC-17B = assay: 6-day MTT cell growth, UM-SCC-17B; format: cell-based, human; conditions: read-out: IC50, inhibition of cell growth
# Method: as §1, §2, §3
# UM-SCC-74B = assay: 6-day MTT cell growth, UM-SCC-74B; format: cell-based, human; conditions: read-out: IC50, inhibition of cell growth
# Method: as §1, §2, §3
# [1] = system: Fib-2 (fibroblast cell line 2); assay: 6-day MTT cell growth, Fib-2; format: cell-based, human; conditions: read-out: IC50, inhibition of cell growth
# Method: as §1, §2, §3
# UM-SCC-6 = assay: Trypan blue exclusion cell death, UM-SCC-6; format: cell-based, human; conditions: 10 μM, 48 hour
# Method: (§4) Cells were seeded in 24 or 96-well-plates and gossypol compounds were prepared at 2-10 fold dilutions in suitable medium. […] Cell viability was then determined by the trypan-blue assays. Inhibition of cell growth was determined by treating cells with gossypol compounds for 3-6 days. Cell inhibition was determined using XTT. In some embodiments, MTT assays are used to determine cell inhibition.
# UM-SCC-12 = assay: Trypan blue exclusion cell death, UM-SCC-12; format: cell-based, human; conditions: 10 μM, 48 hour
# Method: as §4
# UM-SCC-14A = assay: Trypan blue exclusion cell death, UM-SCC-14A; format: cell-based, human; conditions: 10 μM, 48 hour
# Method: as §4
# UM-SCC-1 = assay: Flow cytometric TUNEL apoptosis assay, UM-SCC-1; format: cell-based, human; conditions: 10 μM, 48-hour
# Method: Briefly, FIGS. 24A-24C show apoptosis after (−)-gossypol as measured by a fluorescent flow cytometric TUNEL assay. Open peaks represent BrdU labeling of untreated cells. Shaded peaks indicate BrdU labeling of cell populations following 48-hour treatment with 10 μM (−)-gossypol; FIG. 24A, UM-SCC-cell lines with wild type p53; FIG. 24B, UM-SCC-cell lines with mutant p53; and FIG. 24C normal fibroblast cells.
# Apoptosis of UM-SCC cell lines following (−)-gossypol treatment was quantitatively detected by enzymatic labeling of DNA strand breaks using terminal deoxynucleotidyltransferase (TdT) and Alexa Fluor-BrdUTP, known as the TdT-UTP nick end-labeling (TUNEL) assay by flow cytometry. Cells were exposed to (−)-gossypol for 48 hours, harvested, fixed and TUNEL stained according to the manufacturer's protocol (Molecular Probes Inc., Eugene, Oreg.). Ten thousand cells were analyzed per sample using excitation of Alexa Fluor at 488 nm. Apoptotic index (AI) was defined as percent of apoptotic cells in the treatment population minus that in the vehicle control population.
# UM-SCC cell lines = assay: Flow cytometric TUNEL apoptosis assay, UM-SCC cell lines grouped by p53 status; format: cell-based, human; conditions: 48-hour
# [2] = system: normal human fibroblast WI-38 cells; assay: MTT-based 5-day cell proliferation, WI-38; conditions: WI-38, FIG. 42
# Excerpt: The present invention is not limited to any mechanism. Indeed, a mechanistic understanding of the invention is unnecessary to practice (make and use) the present compositions and methods.
# [3] = system: PC-3 human prostate cancer bilateral xenografts; assay: PC-3 xenograft, (−)-gossypol alone and with cisplatin (Table 11); format: in vivo, NCr-nu nude mouse; conditions: Table 11
# [4] = system: androgen independent prostate cancer PC-3 xenograft; assay: PC-3 xenograft, (−)-gossypol alone and with docetaxel (Example 22); conditions: for complete tumor regression, number of mice: combination of (−)-gossypol with docetaxel
# [5] = Table 17 (content identical to Table 18)
# [6] = Table 18, PC-3 xenograft, (−)-gossypol 10 mg/kg orally for 4 weeks, radiation 2 Gy 5 times/week
# [7] = (−)-gossypol 7.5 mg/kg p.o. daily 4 weeks, docetaxel 7.5 mg/kg once a week 3 weeks
smiles,measurement,setting,value
Cc1cc2c(C(C)C)c(O)c(O)c(C=O)c2c(O)c1-c1c(C)cc2c(C(C)C)c(O)c(O)c(C=O)c2c1O [(−)-gossypol],"potency in inhibition of cell growth relative to (+)-gossypol, first statement",MDA-MB-231 cells,2 times
same,"potency in inhibition of cell growth relative to (+)-gossypol, second statement",MDA-MB-231 cells,5-10 times
same,IC50,UM-SCC-22A,3 µM
same,IC50,UM-SCC-17B,5 µM
same,IC50,UM-SCC-74B,4 µM
same,IC50,[1],20 µM
same,surviving (trypan blue excluding) fraction relative to untreated controls,UM-SCC-6,9%
same,surviving (trypan blue excluding) fraction relative to untreated controls,UM-SCC-12,14%
same,surviving (trypan blue excluding) fraction relative to untreated controls,UM-SCC-14A,16%
same,apoptotic index (AI),UM-SCC-1,90.1%
same,mean apoptotic index,"UM-SCC cell lines; two cell lines with mutant p53, 10 μM",20.7%±9.3
same,mean apoptotic index (AI),"UM-SCC cell lines; two wild-type p53 tumor cell lines, 10 μM",85.2%±6.9
same,cytotoxicity,[2],very limited effect
same,tumor growth inhibition compared with vehicle control,[3]; (−)-gossypol 7.5 mg/kg p.o. in combination with cisplatin 5 mg/kg i.v.,cisplatin at 5 mg/kg achieved 65%
same,weight loss during the treatment,[3]; combination regimen of (−)-gossypol 7.5 mg/kg p.o. with cisplatin 5 mg/kg i.v.,"CDDP alone, and 20-23% weight"
same,toxicity by bodyweight measurements,PC-3 xenograft; (−)-gossypol 10 mg/kg with or without radiation,no significant toxicity
same,antitumor effect,"PC-3 xenograft; (−)-gossypol alone, 10 mg/kg oral, 4 weeks",minimal antitumor effect
same,"tumor growth inhibition compared with vehicle control, day 39","PC-3 xenograft; Table 14, (−)-gossypol 10 mg/kg p.o. in combination with radiation 2 Gy per day, total 30 Gy",achieved 93% tumor growth
same,"tumor growth inhibition, day 39","PC-3 xenograft; Table 14, PC-3 flank xenografts (~150 mm^3 at start), (−)-gossypol 10 mg/kg p.o. 5 times q week for 4 weeks, alone, not significant","regimen (about 20%, P = 0.3 or 0.7,"
same,Tumor Growth Delay (T − C Days),PC-3 xenograft; [5],0 days
same,Tumor Growth Inhibition (T/C %),PC-3 xenograft; [5],98.6%
same,Tumor Growth Delay (T − C Days),PC-3 xenograft; [6],0 days
same,Tumor Growth Inhibition (T/C %),PC-3 xenograft; [6],98.6%
same,Complete tumor regression/Total,[4]; [7],2 out of 12 and 2/12
same,Percent regression,[4]; [7],17%
same,tumor growth inhibition compared with vehicle control,"[4]; Table 9, (−)-gossypol 15 mg/kg p.o. in combination with docetaxel 7.5 mg/kg i.v.",84% tumor growth inhibition as
same,tumor growth inhibition on day 42,"[4]; Table 9, PC-3 flank xenografts (~100 mm^3 at start), NCr-nu nude mouse, 15 mg/kg daily p.o., alone","growth inhibition (52% on day 42,"
same,"complete tumor regression, number of mice","[4]; Table 9, out of 5 mice",complete tumor regression in 3 out mice
same,tumor inhibition compared with vehicle control,"[4]; Table 10, (−)-gossypol in combination with docetaxel 7.5 mg/kg i.v.",at 7.5 mg/kg achieved 89.9% tumor
same,tumor growth inhibition on day 56 compared to vehicle controls,"[4]; Table 10, PC-3 flank xenografts (~120 mm^3 at start), NCr-nu nude mouse, daily p.o. for 28 days, alone (racemic 15 mg/kg)","antitumor activity (60% on day 56,"
same,"complete tumor regression, number of mice","[4]; Table 10, out of 8 mice",complete tumor regression in 5 out mice
